Test results as given in patent US20220281848A1, “PYRAZOLE-SUBSTITUTED PYRROLIDINONES AS HERBICIDES” (FMC Corporation, priority 2019, published 2022).

Test system: plants
Assay: Test D pre-emergence, other plants of Tables D1 and D3
Type: in vivo
Settings: preemergent, 20 DAA
Method: A formulation containing 50 g/L of the test chemical was prepared by dissolving the active ingredient in a mixture of organic solvents and emulsifier, details of which are provided in the table. This formulation was then mixed with a small, variable amount of acetone to aid dissolution, before addition of a 0.2% v/v aqueous solution of an adjuvant, as the aqueous diluent, to form an aqueous spray solution which contains a predetermined concentration of the active ingredient.
This aqueous spray solution was then sprayed onto plants including maize and wheat that had been seed treated with a herbicide safener, after one day's cultivation (for pre-emergence) or after about 12 days' cultivation (for post-emergence). The plants were grown from seeds sown in standard soil, placed in a glasshouse under controlled conditions (at 24/18° C. or 20/16° C., day/night; 16 h light; 65% humidity). After spray application the plants were then grown in a glasshouse under the same conditions and watered twice daily. After 15 d for post-emergence and 20 DAA for pre-emergence the test was evaluated (100=total damage to plant; 0=no damage to plant).

CN1CC(c2cc(C(F)(F)F)n(C)n2)C(C(=O)Nc2cccc(F)c2C(F)(F)F)C1=O (racemic) [Compound 19]
80: damage to plant (100=total damage to plant; 0=no damage to plant), BRAPL (rate 130) | damage to plant (100=total damage to plant; 0=no damage to plant), BRAPL (rate 250) | damage to plant (100=total damage to plant; 0=no damage to plant), ECHCG (rate 60) | damage to plant (100=total damage to plant; 0=no damage to plant), SETFA (rate 60)
40: damage to plant (100=total damage to plant; 0=no damage to plant), BRAPL (rate 30)
90: damage to plant (100=total damage to plant; 0=no damage to plant), BRAPL (rate 500) | damage to plant (100=total damage to plant; 0=no damage to plant), DIGSA (rate 30) | damage to plant (100=total damage to plant; 0=no damage to plant), DIGSA (rate 60) | damage to plant (100=total damage to plant; 0=no damage to plant), DIGSA (rate 130) | damage to plant (100=total damage to plant; 0=no damage to plant), DIGSA (rate 250) | damage to plant (100=total damage to plant; 0=no damage to plant), ECHCG (rate 130) | damage to plant (100=total damage to plant; 0=no damage to plant), ECHCG (rate 250) | damage to plant (100=total damage to plant; 0=no damage to plant), ECHCG (rate 500) | damage to plant (100=total damage to plant; 0=no damage to plant), SETFA (rate 130) | damage to plant (100=total damage to plant; 0=no damage to plant), SETFA (rate 250) | damage to plant (100=total damage to plant; 0=no damage to plant), SETFA (rate 500)
60: damage to plant (100=total damage to plant; 0=no damage to plant), SETFA (rate 30)
20: damage to plant (100=total damage to plant; 0=no damage to plant), ECHCG (rate 30)
100: damage to plant (100=total damage to plant; 0=no damage to plant), DIGSA (rate 500)
70: damage to plant (100=total damage to plant; 0=no damage to plant), BRAPL (rate 60) | damage to plant (100=total damage to plant; 0=no damage to plant), DIGSA (rate 15)
10: damage to plant (100=total damage to plant; 0=no damage to plant), ABUTH (rate 500)
0: damage to plant (100=total damage to plant; 0=no damage to plant), ABUTH (rate 15) | damage to plant (100=total damage to plant; 0=no damage to plant), ABUTH (rate 30) | damage to plant (100=total damage to plant; 0=no damage to plant), ABUTH (rate 60) | damage to plant (100=total damage to plant; 0=no damage to plant), ABUTH (rate 130) | damage to plant (100=total damage to plant; 0=no damage to plant), ABUTH (rate 250) | damage to plant (100=total damage to plant; 0=no damage to plant), AMARE (rate 15) | damage to plant (100=total damage to plant; 0=no damage to plant), AMARE (rate 30) | damage to plant (100=total damage to plant; 0=no damage to plant), AMARE (rate 60) | damage to plant (100=total damage to plant; 0=no damage to plant), AMARE (rate 130) | damage to plant (100=total damage to plant; 0=no damage to plant), AMARE (rate 250) | damage to plant (100=total damage to plant; 0=no damage to plant), AMARE (rate 500) | damage to plant (100=total damage to plant; 0=no damage to plant), BIDPI (rate 15) | damage to plant (100=total damage to plant; 0=no damage to plant), BIDPI (rate 30) | damage to plant (100=total damage to plant; 0=no damage to plant), BIDPI (rate 60) | damage to plant (100=total damage to plant; 0=no damage to plant), BIDPI (rate 130) | damage to plant (100=total damage to plant; 0=no damage to plant), BIDPI (rate 250) | damage to plant (100=total damage to plant; 0=no damage to plant), BIDPI (rate 500) | damage to plant (100=total damage to plant; 0=no damage to plant), BRAPL (rate 15) | damage to plant (100=total damage to plant; 0=no damage to plant), CYPES (rate 15) | damage to plant (100=total damage to plant; 0=no damage to plant), CYPES (rate 30) | damage to plant (100=total damage to plant; 0=no damage to plant), CYPES (rate 60) | damage to plant (100=total damage to plant; 0=no damage to plant), CYPES (rate 130) | damage to plant (100=total damage to plant; 0=no damage to plant), CYPES (rate 250) | damage to plant (100=total damage to plant; 0=no damage to plant), CYPES (rate 500) | damage to plant (100=total damage to plant; 0=no damage to plant), ECHCG (rate 15) | damage to plant (100=total damage to plant; 0=no damage to plant), ELEIN (rate 15) | damage to plant (100=total damage to plant; 0=no damage to plant), ELEIN (rate 30) | damage to plant (100=total damage to plant; 0=no damage to plant), ELEIN (rate 60) | damage to plant (100=total damage to plant; 0=no damage to plant), ELEIN (rate 130) | damage to plant (100=total damage to plant; 0=no damage to plant), ELEIN (rate 250) | damage to plant (100=total damage to plant; 0=no damage to plant), ELEIN (rate 500) | damage to plant (100=total damage to plant; 0=no damage to plant), EPHHL (rate 15) | damage to plant (100=total damage to plant; 0=no damage to plant), EPHHL (rate 30) | damage to plant (100=total damage to plant; 0=no damage to plant), EPHHL (rate 60) | damage to plant (100=total damage to plant; 0=no damage to plant), EPHHL (rate 130) | damage to plant (100=total damage to plant; 0=no damage to plant), EPHHL (rate 250) | damage to plant (100=total damage to plant; 0=no damage to plant), EPHHL (rate 500) | damage to plant (100=total damage to plant; 0=no damage to plant), GLXMA (rate 15) | damage to plant (100=total damage to plant; 0=no damage to plant), GLXMA (rate 30) | damage to plant (100=total damage to plant; 0=no damage to plant), GLXMA (rate 60) | damage to plant (100=total damage to plant; 0=no damage to plant), GLXMA (rate 130) | damage to plant (100=total damage to plant; 0=no damage to plant), GLXMA (rate 250) | damage to plant (100=total damage to plant; 0=no damage to plant), GLXMA (rate 500) | damage to plant (100=total damage to plant; 0=no damage to plant), IPOHE (rate 15) | damage to plant (100=total damage to plant; 0=no damage to plant), IPOHE (rate 30) | damage to plant (100=total damage to plant; 0=no damage to plant), IPOHE (rate 60) | damage to plant (100=total damage to plant; 0=no damage to plant), IPOHE (rate 130) | damage to plant (100=total damage to plant; 0=no damage to plant), IPOHE (rate 250) | damage to plant (100=total damage to plant; 0=no damage to plant), IPOHE (rate 500) | damage to plant (100=total damage to plant; 0=no damage to plant), ORYSA (rate 15) | damage to plant (100=total damage to plant; 0=no damage to plant), ORYSA (rate 30) | damage to plant (100=total damage to plant; 0=no damage to plant), ORYSA (rate 60) | damage to plant (100=total damage to plant; 0=no damage to plant), ORYSA (rate 130) | damage to plant (100=total damage to plant; 0=no damage to plant), ORYSA (rate 250) | damage to plant (100=total damage to plant; 0=no damage to plant), ORYSA (rate 500) | damage to plant (100=total damage to plant; 0=no damage to plant), PANMI (rate 15) | damage to plant (100=total damage to plant; 0=no damage to plant), PANMI (rate 30) | damage to plant (100=total damage to plant; 0=no damage to plant), PANMI (rate 60) | damage to plant (100=total damage to plant; 0=no damage to plant), PANMI (rate 130) | damage to plant (100=total damage to plant; 0=no damage to plant), PANMI (rate 250) | damage to plant (100=total damage to plant; 0=no damage to plant), PANMI (rate 500) | damage to plant (100=total damage to plant; 0=no damage to plant), SETFA (rate 15) | damage to plant (100=total damage to plant; 0=no damage to plant), SORVU (rate 15) | damage to plant (100=total damage to plant; 0=no damage to plant), SORVU (rate 30) | damage to plant (100=total damage to plant; 0=no damage to plant), SORVU (rate 60) | damage to plant (100=total damage to plant; 0=no damage to plant), SORVU (rate 130) | damage to plant (100=total damage to plant; 0=no damage to plant), SORVU (rate 250) | damage to plant (100=total damage to plant; 0=no damage to plant), SORVU (rate 500)
